# Reference: patent US20220401383A1 (SHINKEI THERAPEUTICS, INC., priority 2019, published 2022)
# pIC50: −log10 of the molar value. Where two headings read alike, the source gives them in different places.
# Columns and labels:
# [1] = system: CBD metabolism in human liver microsomes; assay: Example 1: inhibition of CBD metabolism in pooled human liver microsomes; conditions: for Inhibition of CBD metabolism (in words): human liver microsomes; for pIC50: read-out: HLM CYP inhibition IC50, substrate CBD, pooled HLM 0.1 mg/mL, CBD 1.64 μM, 15 minutes, n = 1
# [2] = system: CBD metabolism in human liver microsomes (CYP3A4 and CYP2C19); assay: in vitro
# [3] = system: Maximum Electroconvulsive Shock (MES) model; conditions: MES model in mouse; cited from earlier work
# [4] = cited from earlier work
# [5] = cited from earlier work; remark: listed apart in the source
# [6] = Clinical pharmacokinetics (literature data); conditions: human, in vivo, oral
# CYP1A2 = biological target: T1, CYP1A2 (Homo sapiens, UniProt P05177); conditions: cited from earlier work
# T1 sequence (P05177 1-516): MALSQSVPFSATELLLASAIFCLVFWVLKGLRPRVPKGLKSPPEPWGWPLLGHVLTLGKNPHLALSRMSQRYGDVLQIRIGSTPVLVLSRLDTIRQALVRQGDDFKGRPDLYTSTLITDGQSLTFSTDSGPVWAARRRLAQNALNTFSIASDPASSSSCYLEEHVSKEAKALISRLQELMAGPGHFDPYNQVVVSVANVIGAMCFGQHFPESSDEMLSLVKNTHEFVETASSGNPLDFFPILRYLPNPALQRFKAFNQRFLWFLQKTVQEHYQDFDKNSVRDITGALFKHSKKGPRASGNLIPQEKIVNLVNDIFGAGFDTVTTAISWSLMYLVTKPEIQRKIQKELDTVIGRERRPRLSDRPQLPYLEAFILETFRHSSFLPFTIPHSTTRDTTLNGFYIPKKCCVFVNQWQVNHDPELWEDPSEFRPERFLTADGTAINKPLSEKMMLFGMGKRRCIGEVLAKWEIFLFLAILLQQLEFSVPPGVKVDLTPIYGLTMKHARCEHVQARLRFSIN
# CYP2C8 = biological target: T2, CYP2C8 (Homo sapiens, UniProt P10632); conditions: cited from earlier work
# T2 sequence (P10632 1-490): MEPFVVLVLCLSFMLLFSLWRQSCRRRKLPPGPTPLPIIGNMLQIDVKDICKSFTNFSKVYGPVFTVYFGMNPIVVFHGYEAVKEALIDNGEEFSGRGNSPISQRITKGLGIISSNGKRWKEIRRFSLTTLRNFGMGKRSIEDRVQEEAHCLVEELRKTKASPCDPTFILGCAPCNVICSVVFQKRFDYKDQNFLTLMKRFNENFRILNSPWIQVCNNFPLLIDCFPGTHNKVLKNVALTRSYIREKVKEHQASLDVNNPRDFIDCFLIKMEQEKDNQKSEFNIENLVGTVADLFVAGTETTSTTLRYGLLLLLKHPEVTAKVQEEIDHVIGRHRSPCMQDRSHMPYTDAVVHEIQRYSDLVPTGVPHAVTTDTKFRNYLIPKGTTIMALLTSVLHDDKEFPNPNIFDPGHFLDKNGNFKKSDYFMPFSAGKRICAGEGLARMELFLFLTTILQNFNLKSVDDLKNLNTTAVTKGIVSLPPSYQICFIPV
# CYP2C19 [7] = biological target: T3, CYP2C19 (Homo sapiens, UniProt P33261); conditions: cited from earlier work
# T3 sequence (P33261 whole entry): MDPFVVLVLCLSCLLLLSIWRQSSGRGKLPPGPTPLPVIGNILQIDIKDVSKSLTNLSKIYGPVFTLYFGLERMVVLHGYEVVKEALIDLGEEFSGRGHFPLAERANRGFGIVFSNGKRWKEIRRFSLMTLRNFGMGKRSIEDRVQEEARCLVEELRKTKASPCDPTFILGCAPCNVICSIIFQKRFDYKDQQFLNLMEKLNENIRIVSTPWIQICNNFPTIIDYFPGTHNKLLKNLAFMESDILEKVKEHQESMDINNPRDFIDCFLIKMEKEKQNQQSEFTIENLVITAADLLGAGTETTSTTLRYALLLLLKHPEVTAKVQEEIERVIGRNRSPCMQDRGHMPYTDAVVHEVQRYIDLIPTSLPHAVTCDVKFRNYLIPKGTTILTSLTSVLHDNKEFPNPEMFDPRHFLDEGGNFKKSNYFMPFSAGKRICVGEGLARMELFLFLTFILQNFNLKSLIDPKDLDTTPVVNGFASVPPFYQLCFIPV
# CYP2D6 = CYP2D6 (Homo sapiens, UniProt P10635); assay: biochemical
# CYP2D6, sequence (P10635 whole entry): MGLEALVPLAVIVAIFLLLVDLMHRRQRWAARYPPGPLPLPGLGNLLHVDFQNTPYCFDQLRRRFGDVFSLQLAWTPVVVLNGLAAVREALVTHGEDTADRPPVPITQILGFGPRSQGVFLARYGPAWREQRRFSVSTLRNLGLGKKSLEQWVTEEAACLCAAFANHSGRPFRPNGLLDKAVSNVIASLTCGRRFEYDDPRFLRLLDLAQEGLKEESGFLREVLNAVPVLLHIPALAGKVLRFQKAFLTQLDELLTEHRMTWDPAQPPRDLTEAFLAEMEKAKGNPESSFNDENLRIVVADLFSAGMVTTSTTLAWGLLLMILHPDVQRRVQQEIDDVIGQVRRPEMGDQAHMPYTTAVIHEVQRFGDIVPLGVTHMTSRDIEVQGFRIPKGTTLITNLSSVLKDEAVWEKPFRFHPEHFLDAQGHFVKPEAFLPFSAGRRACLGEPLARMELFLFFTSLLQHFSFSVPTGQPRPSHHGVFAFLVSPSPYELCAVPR
# Protocol: Incubation mixtures were prepared with the following:
# (a) potassium phosphate buffer;
# (b) 0.1 mg/mL microsomal protein;
# (c) isoform-specific probe substrates;
# (d) specific concentrations of the test compounds, blank solvent, or positive controls (isoform-specific inhibitors); and
# (e) an NADPH-regenerating cofactor solution.
# Upon completion of the incubation, the reactions were quenched with an acetonitrile solution containing an internal standard. The samples were processed and analyzed by LC-MS/MS to monitor for substrate metabolite formation. The enzyme activity in the presence of the compounds were normalized with the enzyme activity in the absence of the compounds and expressed as a percentage of activity. The inhibitory potential (IC50) of the compounds were determined using nonlinear regression of percentage of activity versus compound concentration.
# CYP2C19 [8] = biological target: T3, CYP2C19
structure (smiles),measurement,setting,value
"C/C(=C\COc1c2ccoc2cc2oc(=O)ccc12)CCC(O)C(C)(C)O (stereo not drawn) [6,7-dihydroxybergamottin]",Inhibition of CBD metabolism (in words),[1],effective inhibitors of CBD metabolism
same,pIC50,[1],4.63
COc1ccc2[nH]c([S+]([O-])Cc3ncc(C)c(OC)c3C)nc2c1 (stereo not drawn) [Omeprazole],IC50 at 15 min,[2],> 33 µM
COc1ccc2[nH]c(S(=O)(=O)Cc3ncc(C)c(OC)c3C)nc2c1 [Omeprazole Sulphone],pIC50,[1],< 4.48
CNCCC(Oc1ccc(C(F)(F)F)cc1)c1ccccc1 (stereo not drawn) [Fluoxetine],IC50 at 15 min,[2],> 33 µM
same,Inhibition of CBD metabolism (in words),[1],unable to inhibit metabolism of CBD
C=C(C)[C@@H]1CCC(CO)=C[C@H]1c1c(O)cc(CCCCC)cc1O [7-OH-CBD],Anticonvulsant effect,[3],anticonvulsant effect similar to CBD
Cc1c(OCC(F)(F)F)ccnc1C[S+]([O-])c1nc2ccccc2[nH]1 (stereo not drawn) [Lansoprazole],IC50 at 15 min,[2],20 µM
same,Inhibition of CBD metabolism (in words),[1],effective inhibitors of CBD metabolism
CC(C)=CCC/C(C)=C/COc1c2ccoc2cc2oc(=O)ccc12 [Bergamottin],IC50 at 15 min,[2],> 33 µM
C=C(C)[C@@H]1CCC(C(=O)O)=C[C@H]1c1c(O)cc(CCCCC)cc1O [7-COOH-CBD],Concentration of metabolite relative to CBD,[4]; after 1500 mg CBD dose,47 fold
same,Share of the total drug material measured in systemic circulation,[4]; after 1500 mg CBD dose,97%
same,Anticonvulsant effect,[3],inactive
"C=C(C)[C@@H]1CCC(C)=C[C@H]1c1c(O)cc(CCCCC)cc1O [CBD, cannabidiol]",Share of the total drug material measured in systemic circulation,[4]; after 1500 mg CBD dose,2%
same,CBD AUC,[4]; single dose 200 mg,499 ng·h/mL
same,CBD AUC,[4]; single dose 750 mg,1070 ng·h/mL
same,CBD AUC,[4]; single dose 1500 mg,1444 ng·h/mL
same,CBD AUC,[4]; single dose 3000 mg,2669 ng·h/mL
same,CBD AUC,[4]; single dose 4500 mg,3215 ng·h/mL
same,CBD AUC,[4]; single dose 6000 mg,3696 ng·h/mL
same,Log P (partition coefficient),[5],6.1
same,bioavailability,[6]; 200 mg,100%
same,bioavailability,[6]; 750 mg,57%
same,bioavailability,[6]; 1500 mg,39%
same,bioavailability,[6]; 3000 mg,36%
same,bioavailability,[6]; 4500 mg,29%
same,bioavailability,[6]; 6000 mg,25%
CC(C)c1nc(CN(C)C(=O)N[C@@H](CCN2CCOCC2)C(=O)N[C@H](CC[C@H](Cc2ccccc2)NC(=O)OCc2cncs2)Cc2ccccc2)cs1 [Cobicistat],pIC50,CYP1A2,< 4.60
same,pIC50,CYP2C8,< 4.60
same,pIC50,CYP2C19 [7],< 4.60
same,pIC50,CYP2D6,6.32
same,pIC50,CYP2C19 [8],6.48
same,Inhibition of CBD metabolism (in words),[1],strong inhibitor of CBD metabolism
